Like-named read-outs stand apart in the source and are kept apart here.
Experiments:
plasma proteins = assay: In vitro plasma protein binding (rapid equilibrium dialysis); type: in vitro ADME; conditions: pH 7.4, dog plasma, 160, 400 and 1600 ng/ml (0.4, 1, 4 µM), 37°C, mean values
Description: Equilibrium dialysis studies were performed using the Rapid Equilibrium Dialysis (RED) devices (Waters et al., [2008]) that consist of two chambers separated with a dialysis membrane with a cut‐off of 8.0 kDa (Pierce Biotechnology, ThermoFisher Scientific). The plasma protein binding was determined with blank canine plasma spiked with enflicoxib or its pyrazol metabolite. The highly bound compound tolterodine was used as a positive control. Stock solutions of the tested compounds were prepared at 10 mM concentration in DMSO and were immediately used or stored at −20 °C (±5°C) until further use.
Samples were prepared by spiking dog plasma with the compounds at three increasing concentrations (0.4 µM, 1 µM and 4 µM). Plasma samples were loaded (200 µl) in the donor chambers while the opposite chamber contained 350 µl of dialysis buffer (0.1 M phosphate buffer, pH 7.4). Dialysis was run at 37°C for 4 h with continuous shaking. […] The unbound fractions for enflicoxib or its pyrazol metabolite were determined by LC‐MS/MS using a modification of the previously described method. […]
The percent of binding to plasma proteins was calculated as: %Protein binding = (Cdonor‐Cacceptor)/Cdonor∗100. where: Cdonor = Concentration in the donor chamber after dialysis; Cacceptor = Concentration in the acceptor chamber after dialysis. […]
For each plasma sample, protein binding was determined in triplicate.

[1] = In vitro blood to plasma partitioning; conditions: female, Beagle, dog, whole blood
Description: Whole blood was obtained from 3 untreated female Beagle dogs (located in Isoquimen SL, Sant Feliu de Codines, Barcelona, Spain) and pooled into two different batches. Lithium heparin was used as anticoagulant. Blood was maintained in a rotator shaker at room temperature before use.
The derived working solutions were freshly prepared each day of experimentation.
The haematocrit (H), percent of total blood cells in whole blood samples (v/v), was determined before the assay. […] The samples were incubated separately (n = 3) at ca 37°C for 60 min under gentle agitation in a rotator shaker in polypropylene tubes. The concentration of organic solvent in the incubates was kept below 0.05% to prevent haemolysis. Reference plasma was incubated similarly in Eppendorf protein LoBind tubes as a surrogate matrix of whole blood to assess total drug concentration (Cb).
For the enflicoxib and pyrazol metabolite determination, the plasma specimens were mixed with AcN containing the internal standard celecoxib for protein precipitation (1:3 ratio plasma: solution). […] After centrifugation, the supernatants were diluted with 0.1% FA in water: AcN (90:10) and injected into the LC‐MS/MS system. […] Blank samples were processed as described before, and were used to check the selectivity and carry‐over of the LC‐MS/MS analytical runs.
The quantification of each test item in plasma was performed using calibration curves ranging from 0.05 to 20 µg/ml. […] In both cases, the LC‐MS/MS response ratios (peak area of analyte/peak area Internal Standard) were used for quantitation.
The analyte concentration obtained from LC‐MS/MS analysis in each sample was used to calculate the blood‐plasma concentration ratio (C b/C p) as follows:
C b/C p = [(concentration in reference plasma; Equivalent to concentration in whole blood) / (concentration in plasma from whole blood)].
From these values, the red blood cells (RBC) to plasma ratio (K RBC/PL) was also calculated using the following equation: KRBC/PL=1/H×Cb/Cp‐1+1 where H: haematocrit.

COX‐2 = conditions: in vitro and in vivo; ref Iñiguez et al., 2010; Wagemakers et al., 2009; cited from earlier work
[2] = set-up: method as in Ecuphar/Animalcare internal data; conditions: ref Ecuphar/Animalcare internal data; cited from earlier work
[3] = Single intravenous dose pharmacokinetic study
Description: (§1) For the IV administration, a stable 2 mg/ml enflicoxib injectable solution was prepared in a vehicle containing 20% ethanol, 8% kolliphor HS‐15 and 72% water, and sterilised using a ≤0.22‐µm syringe filter. To avoid administering an excessive volume of product, dogs in the IV group received a single dose of 2 mg/kg and were followed for 35 days. A 22‐gauge ¾” catheter was introduced into the cephalic vein, using aseptic technique. A syringe with sterile saline was used to test the patency of the vein. The calculated volume of the solution was slowly administered through the catheter over approximately 1 min. Approximately 1–2 ml of sterile saline was used to flush the catheter following drug administration.
(§2) Blood samples (2 ml) were collected from the jugular vein in K3EDTA tubes for determination of plasma concentrations of enflicoxib and its metabolites, at the following time points:
(§3) Blood samples were centrifuged within 30 min after collection at 2500 g for 10 min at ca. +5 °C. The resultant plasma was divided into 2 aliquots and frozen at ca. −20°C until analysis.
(§4) Method for enflicoxib and its pyrazol metabolite in plasma involved its extraction from 100 µL samples by solid phase extraction (Oasis MCX 30 μm 96‐well plates, 10 mg; Waters) and separated by reverse‐phase liquid chromatography on a Luna PFP (2) column (3 μm, 50 × 4.6 mm; Phenomenex), in gradient mode elution using 0.1% FA in water and MeOH 60:40 (v/v) as mobile phase flushed a flow rate of 1 ml/min. Celecoxib was used as internal standard.
(§5) The pharmacokinetic parameters were obtained from the individual plasma concentration‐time profiles of enflicoxib or its metabolites in each animal, by non‐compartmental analysis using Phoenix® WinNonLin® software (version 8.0. Pharsight Corporation). For all calculations, values below lower limit of quantification (BLLOQ) were considered as “0” except trailing concentrations, which were excluded from calculations.
(§6) Additional pharmacokinetic parameters calculated for the IV treatment were plasma clearance (CL) as CL = Dose/AUCinf; volume of distribution at steady‐state (Vss) as Vss = MRTINF × CL; volume of distribution based on the terminal phase (Vz) as Vz = CL/ λz); and Mean resident time (MRT) was calculated as MRT = AUMC/AUC, with AUMC being the area under the first moment curve. For enflicoxib, C0 was calculated as the extrapolated plasma concentration at time zero after IV administration.

[4] = Single oral dose pharmacokinetic study, fed or fasted; conditions: for bioavailability / half-life / Tmax: both, Beagle, dog, plasma; for bioavailability: F% (absolute oral bioavailability); for Tmax: single oral 8 mg/kg enflicoxib, median [min-max]
Description: (§7) Thirty healthy Beagle dogs (males and females) of 1–5 years old at the time of dosing, and bodyweight between 7.4 and 12.3 kg, were housed indoors in climate‐controlled facilities in accordance with accepted laboratory animal care and use guidelines. As the animals belonged to the same centre, they were acclimatised for 5 days before study initiation.
(§8) Dogs were offered approximately 400 g of pelleted canine feed once daily. Fresh potable water was offered ad libitum. All dogs, except those in the Oral‐Fed group, were fasted overnight before dosing and food was offered after the 4‐h blood collection. Dogs in the Oral‐Fed group were supplied with 50% of their daily food ration approximately 1 h before administration, and the remainder of the food was given after the first 15‐min blood collection period post administration.
(§9) The oral groups received a single oral nominal dose of 8 mg/kg of enflicoxib (Daxocox® tablets for dogs, Ecuphar/Animalcare) in its final formulation and were followed for 126 days. The dog’s mouth was opened, the dose placed towards the back of the tongue, and 5 ml of water was administered following the dose to aid in swallowing.
as §2
(§10) Oral groups: Before administration (pre‐dose; Day 1 to Day 0), 15 and, 30 min, 1, 2, 4, 6, 8, 12, 24, 48 h and 3, 4, 6, 7, 10, 14, 21, 28, 42, 56, 70, 84, 98, 112, and 126 days post administration, with the aim to characterise the complete pharmacokinetic profile of the pyrazol metabolite.
as §3
(§11) Plasma concentrations of enflicoxib and its metabolites were measured by two HPLC methods coupled with MS/MS detection (MRM) in negative ion electrospray mode.
as §4, §5

[5] = Distribution into synovial fluid after IV administration; conditions: day 35 after IV 2 mg/kg enflicoxib
Description: (§12) The distribution into synovial fluid was prospectively investigated in samples corresponding to the last collection timepoint after the IV administration.
(§13) Samples of synovial fluid from the 10 dogs in the IV group were obtained under anaesthesia at 35 days post administration. Blank synovial fluid was obtained from 8 non‐dosed dogs at the same study facilities and pooled before being used for preparation of calibration curve and quality control samples for the qualification of the bioanalytical method.
(§14) Method for hydroxylated pyrazoline metabolite in plasma and for enflicoxib, pyrazol metabolite and hydroxylated pyrazoline metabolite in synovial fluid used the protein‐precipitation technique for extraction from dog samples (50 µl). The analytes were separated by reverse‐phase liquid chromatography on a Kinetex F5 100 Å column (100 × 3.0 mm; Phenomenex), in gradient mode elution using 0.1% FA in water and MeOH as mobile phase flushed a flow rate of 0.75 ml/min. Celecoxib was also used as internal standard.
(§15) For synovial fluid samples, the ratio of synovial fluid to plasma for enflicoxib and its metabolites was calculated at day 35 after IV administration.

[6] = Multiple dose oral toxicokinetic (target animal safety) study; conditions: for AUC / Cmax: both, Beagle, dog, plasma, po; for AUC: AUC168, group 1X; for accumulation ratio, loading dose normalised to maintenance dose: weeks 13 and 31 vs week 1, all dose levels
Description: (§16) This study was designed as a Target Animal Safety (TAS) study, to assess the effects of repeated oral administrations of enflicoxib at either the recommended dose (1X), three times the dose (3X) or five times the dose (5X), that were compared to an untreated group (placebo, 0X) and followed the internationally agreed TAS guideline (VICH GL[43], [2008]). Blood samples were taken during the study to assess the dose‐exposure proportionality after single and repeated dose administrations.
(§17) Thirty‐two male and female healthy Beagle dogs, 8–10 months old and experimentally naïve, were obtained from a laboratory animal supplier. All animals were acclimatised for 28 days before study initiation. All dogs were housed in pairs of the same sex and dose group in indoor pens under temperature and humidity‐controlled conditions (15 to 24°C, 40–70% RH). Artificial lighting was provided for approximately 12 h per day. […] For each group, periods of exercise and socialisation were permitted daily. Animals were fed daily with 400 g of a certified commercial pelleted diet.
(§18) Dogs were stratified by sex and weight, (16 males weighing 6.7–9.9 kg and 16 females weighing 5.3–7.0 kg) and allocated to four groups (0X, 1X, 3X and 5X) using a pseudo‐random body weight stratification procedure, which yielded groups of four dogs of each sex with approximately equal mean body weight. Dogs were distributed in a block of several adjacent pens and identified by a microchip inserted shortly after arrival.
(§19) Enflicoxib was supplied as commercial Daxocox® tablets containing 15, 30, 45, 70 or 100 mg of enflicoxib (Ecuphar/Animalcare). The number and size of the tablets administered orally were calculated weekly based on the most recent body weights and the target dose level required. Tablets were administered once weekly, for a total of 13 weeks (5X group) or 32 weeks (0X, 1X and 3X groups). Tablets administration was followed by 10–20 ml tap water to facilitate passage of drug to the stomach.
(§20) Blood samples were collected as described for the determination of blood concentrations of enflicoxib and its pyrazol metabolite. The sampling schedule was at 6 h (on week 1 only), 24, 48, 72, 96, 120, 144 and 168 h post dose in weeks 1, 13 and 31, Additionally, weekly samples were taken prior to each dose throughout the study. Plasma was obtained and stored as described before.
(§21) The AUCt and AUCinf values were calculated with linear trapezoidal rule, and the extrapolation of AUCt to obtain AUCinf was performed using the observed concentration at the last time point. Due to the limited time between doses, the terminal rate constants (λz), and corresponding terminal half‐lives (t1/2), were calculated only for the parent compound. […] The accumulation ratios, based on AUC168 values of both compounds, were calculated at weeks 13 (last experimental week for the 5X group) and 31 (last experimental week for the other groups).
(§22) For the repeated oral dose study, analyses of variance were performed for week 1 and week 13 data separately, including all three dose levels to assess dose proportionality. For weeks 13 and 31, the analysis was done for the low and mid dose levels only, adjusted to 1 mg/kg. The factors in these analyses were dose group, time, sex and their interactions. Animal was included as a blocking factor since the same animals were bled on each sampling day. The data were logarithmically transformed prior to its analysis using SAS 9.4 (SAS Institute (2002) SAS OnlineDoc® Version Nine. SAS Institute Inc.).

[7] = dog, in vivo
Description: as §7, §8, §9, §2, §10, §3, §11, §4, §5

[8] = dog, in vivo, iv, 2 mg/kg
Description: as §1, §2, §3, §4, §5, §6

[9] = dog, in vivo, iv, 2 mg/kg; remark: listed apart in the source
Description: as §12, §13, §14, §15

[10] = dog, in vivo; remark: listed apart in the source
Description: as §16, §17, §18, §19, §20, §21, §22

[11] = both, Beagle, dog, plasma, iv, 2 mg/kg

`NS(=O)(=O)c1ccc(N2N=C(C(F)(F)F)C[C@H]2c2ccc(F)cc2F)cc1` (racemic) [Enflicoxib, 4‐(5‐(2,4‐difluorophenyl)‐3‐(trifluoromethyl)‐4,5‐dihydro‐1H‐pyrazol‐1‐yl) benzenesulfonamide] gave a fraction unbound at 4 h (plasma proteins) of 0.0099 to 0.0262, a blood plasma ratio at 60 min, 1 µg/ml [1] of 1.07 and a blood plasma ratio at 60 min, 5 µg/ml [1] of 0.66. For the same molecule, the blood plasma ratio at 60 min, 15 µg/ml [1] was 0.66, the “inhibition of COX‐2 enzymatic activity” value (COX‐2) was “potent inhibitors” and the solubility in water [2] was “practically insoluble”. The t1/2 ([3]; IV 2 mg/kg enflicoxib, harmonic mean [min-max], pyrazol metabolite n=4) was 19.77 [11.2–29.7] h, the Vd [3, 11] was 4 L/kg and the clearance [3, 11] was 2.33 mL/min/kg. It also gave a half-life ([3]; both, Beagle, dog, plasma, iv, 2 mg/kg, t1/2, IV 2 mg/kg enflicoxib, harmonic mean [min-max], pyrazol metabolite n=4) of 20 h, a bioavailability ([4]; oral, 8 mg/kg, oral 8 mg/kg fasted vs IV 2 mg/kg) of 44% and a bioavailability ([4]; oral, 8 mg/kg, oral 8 mg/kg fed vs IV 2 mg/kg) of 63%. The half-life ([4]; other: IV or oral, whatever the feeding condition, terminal elimination half‐life (t1/2), all routes of administration (IV or oral, whatever the feeding condition)) was 20 h, the bioavailability ([4]; po, 8 mg/kg, oral 8 mg/kg fed vs IV 2 mg/kg) was 63.4% and the Tmax ([4]; po, 8 mg/kg, fasted) was 4 h. For the same molecule, the Tmax ([4]; po, 8 mg/kg, fed) was 2 h, the half-life ([4]; po, 8 mg/kg, t1/2, single oral 8 mg/kg enflicoxib, fasted, harmonic mean) was 18.3 h and the half-life ([4]; po, 8 mg/kg, t1/2, single oral 8 mg/kg enflicoxib, fed, harmonic mean) was 19.7 h. For the same molecule, the “F% (absolute oral bioavailability)” value ([4]; oral 8 mg/kg fasted vs IV 2 mg/kg) was 44.1%, the “increase of extent of absorption and plasma exposure by food” value ([4]; oral 8 mg/kg, fed vs fasted) was 43% and the “Frel% (relative oral bioavailability)” value ([4]; oral fed vs oral fasted, 8 mg/kg) was 143.3%. For the same molecule, the synovial fluid concentration [5] was “BLLOQ”, the tolerability ([6]; all three dose levels (1X, 3X, 5X), weekly oral, all dogs) was “well tolerated” and the AUC ([6]; 4 mg/kg, week 13, mean ± SD) was 47600 ng·h/mL. The AUC ([6]; 4 mg/kg, week 31, mean ± SD) was 64000 ng·h/mL, the Cmax ([6]; 4 mg/kg, group 1X (8 + 4 mg/kg weekly oral), week 1, mean ± SD, n=8) was 2020 ± 461 ng/mL and the Cmax ([6]; 4 mg/kg, group 1X, week 13, mean ± SD) was 878 ± 319 ng/mL. For the same molecule, the Cmax ([6]; 4 mg/kg, group 1X, week 31, mean ± SD) was 1450 ± 374 ng/mL, the AUC ([6]; 8 mg/kg, week 1, mean ± SD) was 87900 ng·h/mL and the Cmax ([6]; 12 mg/kg, group 3X, week 13, mean ± SD) was 2760 ± 817 ng/mL. It also gave a Cmax ([6]; 12 mg/kg, group 3X, week 31, mean ± SD) of 3380 ± 1120 ng/mL, a Cmax ([6]; 20 mg/kg, group 5X (40 + 20 mg/kg), week 1, mean ± SD) of 9590 ± 2040 ng/mL and a Cmax ([6]; 20 mg/kg, group 5X, week 13, mean ± SD) of 4390 ± 1050 ng/mL. It also gave a Cmax ([6]; 24 mg/kg, group 3X (12 + 24 mg/kg as printed), week 1, mean ± SD) of 6050 ± 1390 ng/mL, a Normalised accumulation ratio ([6]; group 1X, week 13 vs week 1, based on AUC168) of 0.93 and a Normalised accumulation ratio ([6]; group 1X, week 31 vs week 1) of 1.05. For the same molecule, the Normalised accumulation ratio ([6]; group 3X, week 13 vs week 1) was 0.9, the Normalised accumulation ratio ([6]; group 3X, week 31 vs week 1) was 1.15 and the Normalised accumulation ratio ([6]; group 5X, week 13 vs week 1) was 1. The “time of Cmax” value ([6]; week 1 after loading dose, all groups, 6 h = first sampling time) was 6 h, the “pre‐dose plasma concentration” value ([6]; week 13, all groups) was “below 100 ng/ml” and the “correlation coefficient, adjusted PK parameters (Cmax, AUC168) vs dose level” value ([6]; weeks 1 and 13, actual doses, linear regression) was “higher than 0.8”. For the same molecule, the “accumulation ratio, loading dose normalised to maintenance dose” value [6] was ~1, the “accumulation ratio, loading dose normalised to maintenance dose” value ([6]; listed as parent compound) was “less than 1” and the “accumulation ratio based on AUC168 (not normalised)” value ([6]; weeks 13 and 31 vs week 1, all three dose levels) was “approximately 0.5”.

For `NS(=O)(=O)c1ccc(-n2nc(C(F)(F)F)cc2-c2ccc(F)cc2F)cc1` [Pyrazol metabolite], the “F% (absolute oral bioavailability)” value [7] was 49.3%, the “mean terminal elimination half‐life (t½)” value [7] was 408 h and the “terminal elimination half‐life (t1/2)” value [7] was 336 to 406 h. For the same molecule, the AUCinf ([7]; po, 8 mg/kg) was 4,22,700 ± 2,54,500 (60.2) ng·h/ml, the AUClast ([7]; po, 8 mg/kg) was 3,91,500 ± 2,55,100 (65.2) ng·h/ml and the Cmax ([7]; po, 8 mg/kg) was 890.3 ± 551.3 (61.9) ng/ml. For the same molecule, the Tmax ([7]; po, 8 mg/kg) was 120.00 [48.00–336.00] h, the “Tmax, oral doses (fed and fasted), median” value ([7]; po, 8 mg/kg) was 120 to 144 h and the t1/2 ([7]; po, 8 mg/kg) was 353.9 [255–491] h. For the same molecule, the AUClast [8] was 1,56,500 ± 39,810 (25.4) ng·h/ml, the Cmax [8] was 384.5 ± 123.8 (32.2) ng/ml and the MRTlast [8] was 329.5 ± 27.46 (8.3) h. For the same molecule, the Tmax [8] was 96 [48–96] h, the “ratio synovial fluid versus plasma” value [9] was 0.031-0.078 and the “accumulation ratio between weeks 13 and 31, range of dogs” value [10] was 0.56-1.49. The “accumulation ratio week 31 vs week 13” value [10] was “around 1.3”, the “correlation coefficient, adjusted PK parameters (Cmax, AUC168) vs dose level” value [10] was > 0.9 and the “inhibition of COX‐2 enzymatic activity” value (COX‐2) was “potent inhibitors”.

— paper PMC9291756, “Pharmacokinetics of enflicoxib in dogs: Effects of prandial state and repeated administration” (Journal of Veterinary Pharmacology and Therapeutics, 2021)
